Laboratory results from US9415039B2, “Disubstituted 3,4-diamino-3-cyclobutene-1,2-dione compounds for use in the treatment of chemokine-mediated diseases” (GALDERMA RESEARCH & DEVELOPMENT, priority 2011, dated 2016).

Columns and labels:
CXCR2 receptor = molecular target: T1, CXCR2 receptor (Homo sapiens, UniProt P25025); assay: β-arrestin 2 recruitment test after CXCL8 activation, PathHunter HEK293-CXCR2 cells; assay type: cell-based; conditions: stimulation with CXCL8 (10 nM), read-out: CXCR2 (nM), IC50 = half inhibition concentration
T1 construct: β-galactosidase enzyme-complementation fragment (PathHunter system); host or cells: HEK293
T1 sequence (P25025 1-360): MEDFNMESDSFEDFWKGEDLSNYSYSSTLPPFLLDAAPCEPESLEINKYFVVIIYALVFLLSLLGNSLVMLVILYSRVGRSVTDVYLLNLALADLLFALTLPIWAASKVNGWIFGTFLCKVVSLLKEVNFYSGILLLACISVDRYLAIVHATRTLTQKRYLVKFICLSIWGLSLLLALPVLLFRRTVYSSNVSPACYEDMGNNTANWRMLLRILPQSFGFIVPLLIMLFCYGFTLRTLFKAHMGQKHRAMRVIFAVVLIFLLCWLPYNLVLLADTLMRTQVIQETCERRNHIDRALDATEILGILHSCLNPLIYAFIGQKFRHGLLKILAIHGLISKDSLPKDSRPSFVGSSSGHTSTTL
Description: (§1) The in vitro affinity of the compounds of the present invention for the CXCR1 and CXCR2 receptors was determined on a functional test of the β-arrestin recruitment after receptor activation type.
(§2) In order to evaluate the direct interaction of the CXCR2 or CXCR1 receptor with β-arrestin 2, a β-arrestin 2 recruitment test for CXCR2 or CXCR1 based on β-galactosidase enzyme complementation (Olson K R, Eglen R M. Beta galactosidase complementation: a cell-based luminescent assay platform for drug discovery. Assay Drug Dev Technol. 2007 February; 5(1); 137-44), as established by DiscoveRx Corporation was used. The stimulation of these two cell lines with CXCL8 (10 nM) induces β-arrestin 2 recruitment, as indicated by a significant increase in the induction factor. […]
(§3) “PathHunter HEK293-CXCR2” or “U2OS hCXCR1 β-arrestin” cells (DiscoveRx Corporation) were seeded overnight at 10 000 cells/well (384-well format) in 20 μl of Opti MEM I medium. […] After incubation for 60 min at ambient temperature, the […] during the β-arrestin-CXCR2 interaction was measured for 0.3 s in an Envision 2102 Multilabel Reader (PerkinElmer Life and Analytical Sciences). The data were analyzed by means of a non-linear curve procedure using the XLFit4 exploitation software (IDBS) and the IC50 values were determined.

CXCR1 receptor = molecular target: T2, CXCR1 receptor (Homo sapiens, UniProt P25024); assay: β-arrestin 2 recruitment test after CXCL8 activation, U2OS hCXCR1 β-arrestin cells; assay type: cell-based; conditions: stimulation with CXCL8 (10 nM), read-out: CXCR1 (nM), IC50 = half inhibition concentration
T2 construct: β-galactosidase enzyme-complementation fragment (PathHunter system); host or cells: U2OS
T2 sequence (P25024 1-350): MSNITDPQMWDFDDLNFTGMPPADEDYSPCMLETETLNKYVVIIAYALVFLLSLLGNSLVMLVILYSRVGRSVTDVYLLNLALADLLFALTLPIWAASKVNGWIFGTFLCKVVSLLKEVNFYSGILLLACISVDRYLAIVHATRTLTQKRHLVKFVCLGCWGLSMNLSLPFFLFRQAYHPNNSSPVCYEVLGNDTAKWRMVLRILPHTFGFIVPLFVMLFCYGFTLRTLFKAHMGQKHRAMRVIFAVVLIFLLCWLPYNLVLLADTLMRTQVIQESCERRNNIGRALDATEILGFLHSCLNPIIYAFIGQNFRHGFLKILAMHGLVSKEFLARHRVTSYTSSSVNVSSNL
Description: as §1, §2, §3

IC50 (CXCR2 receptor) | IC50 (CXCR1 receptor) | melting point | Compound
111 nM | 3390 nM | 173 to 175 °C | Cc1ccc(C(Nc2c(Nc3cccc(C(=O)N(C)C)c3O)c(=O)c2=O)C2CCSCC2)o1 (stereo not drawn) [Example 2, 2-hydroxy-N,N-dimethyl-3-(2-{[(5-methylfuran-2-yl)-(tetrahydrothiopyran-4-yl)methyl]amino}-3,4-dioxocyclobut-1-enylamino)benzamide]
212 nM | 5440 nM | 137 to 140 °C | Cc1ccc(C(Nc2c(Nc3cccc(C(=O)N(C)C)c3O)c(=O)c2=O)C2CCOCC2)o1 (stereo not drawn) [Example 1, 2-hydroxy-N,N-dimethyl-3-(2-{[(5-methylfuran-2-yl)-(tetrahydropyran-4-yl)methyl]amino}-3,4-dioxocyclobut-1-enylamino)benzamide]
